# Measured values reported in patent US9162992B2, “Compounds and compositions for treatment of breathing control disorders or diseases” (GALLEON PHARMACEUTICALS, INC., priority 2010, dated 2015).
# Tests used:
# [1] = molecular target: T1, BK potassium channel expressed in GH3 cells (Rattus norvegicus, UniProt Q62976); assay: BK potassium channel current in GH3 cells, inside-out patches; type: cell-based
# T1 construct: endogenous in cells; host or cells: GH3 cells
# Protocol: Stock solutions of the test article were prepared in dimethylsulfoxide (DMSO) and stored frozen. Test article concentrations were prepared fresh daily by diluting stock solutions into a physiological saline solution (composition in mM): KCl, 125; CaCl2, 8.5; HEPES, 10; EGTA, 11.25; pH adjusted to 7.2 with KOH (prepared weekly and refrigerated until used). All test solutions contained 0.1% DMSO.
# GH3 cells were grown in culture using standard procedures. Ionic currents were measured from inside-out patches of GH3 cells. Channel activity was monitored in symmetrical K^+ conditions with a holding potential of −60 mV. Activities before and in the presence of each concentration of test articles were recorded for ≧3 minutes, respectively.
# Data acquisition and analyses were performed using the suite of pCLAMP (Ver. 8.2) programs (MDS-AT, Sunnyvale, Calif. Percent inhibition by test article was calculated using the following equation: 100*(NPocontrol−NPotest)/NPocontrol Results
# [2] = system: spontaneously breathing rats; assay: Minute ventilation (MV) and cardiovascular parameters in naive rats; type: in vivo, rat; set-up: unit not given here
# Procedure, shortened: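 Isoflurane-anesthetized rats, intubated and breathing spontaneously at 1.5% isoflurane, received compounds IV, typically 1 mpk, via femoral vein. Minute ventilation recorded as maximum peak response and change versus baseline. Mean arterial pressure and heart rate were monitored through a femoral arterial catheter.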
# [3] = system: healthy subjects; assay: Ventilation, safety and pharmacokinetics in human volunteers, single-rising dose IV infusion; type: in vivo
# Protocol: A randomized, double-blind, placebo-controlled nine-period single-rising dose study in three alternating cohorts of healthy subjects was conducted at a single center in conformance with Good Clinical Practice. Compound (XXXVI) was synthesized according to Good Manufacturing Practice. Three (3) Cohorts of ten subjects each were randomized to treatment in a ratio of 4:1 (8 treated, 2 placebo) in a rotating panel design. Subjects in the first cohort participated in dosing periods 1, 4, and 7, with the second cohort participating in dosing periods 2, 5, and 8, and third cohort participating in dosing period 3, 6, and 9. The subjects who received placebo in their first dosing period also received placebo in their second and third dosing periods. Similarly, drug-treated subjects received drug all three dosing periods. In the first Cohort, on the first dose only, 2 subjects were dosed on Day 1 with one subject receiving active drug and one subject receiving placebo. Following a review of available safety and tolerability data (excluding PK), the remainder of Cohort 1 was dosed the following day. Subjects were dosed as detailed in Table 11 with a minimum of 1-week washout between doses.
# Subjects could be screened up to 28 days before the treatment period. On the evening before dosing, subjects were admitted to the clinical site and baseline evaluations were conducted. After an overnight fast, subjects received an intravenous infusion of Compound (XXXVI) or placebo then PD, PK, and safety evaluations were conducted during the next 24 hours. Cohort 1 was enrolled to the lowest dose group and randomized to Compound (XXXVI) or placebo. Safety and tolerability evaluations for each dose included all safety assessments obtained through approximately 24 hours post-dose.
# Pharmacodynamic endpoints were assessed by two independent systems consisting of Dräger Infinity patient monitoring system and a portable NOX-T3 respiratory monitoring system. The Dräger system is an inpatient intensive care/postoperative monitoring system used to monitor minute ventilation, respiratory rate (RR), tidal volume (VT) via a pneumotachometer (Capnostat sensor), transcutaneous oxygen hemoglobin saturation (SpO2), and end tidal carbon dioxide (ETCO2) (Capnostat sensor). NOX/T3 is a portable monitoring device used for home diagnostic sleep apnea assessments. In this study, NOX device monitored RR, VT via respiratory inductance plethysmography (RIP), SpO2 (Nonin), actigraphy, nasal air flow, and audio recording of the dosing session. In addition to monitoring pharmacodynamic effects, the Dräger system was also used to monitor subject real-time safety. Standard safety assessments were measured repeatedly throughout the dosing session, and consisted of vital signs (BP, HR, RR, temperature (oral)), Ramsay Sedation Scale (RSS), and pulmonary function testing.
# Test Product, Dose, Mode of Administration, Batch and Lot No(s): Compound (XXXVI) was prepared as a sterile product for injection ready for dilution in normal saline and administration by infusion. Doses were based on the subject's weight on a milligram per kilogram basis and were administered over a 1-, 2-, 3- or 4-hour infusion as described in Table 11. Compound (XXXVI) (Batch No. 04110511) was provided by the Sponsor as a 50 mL fill of 10 mg/mL solution (GAL-021 freebase) in 20 mM citrate for IV Injection; Saline was sourced by the Investigator from Baxter, Lot 11F03E7L.
# Thirty (30) subjects received single IV infusions over 1, 2, 3, or 4 hours on the first day of each of 3 periods for a total of 3 dosing days per subject. Per protocol, there was to be a minimum one week washout between doses of Compound (XXXVI) for all subjects. Actual washout periods ranged from 9 to 20 days overall.
# Pharmacodynamic (PD) evaluations included tidal volume, respiratory rate, minute ventilation, end-tidal CO2, and transcutaneous hemoglobin oxygen saturation (SpO2). […]
# [4] = system: spontaneously breathing rats; assay: Dose-dependent effect on minute ventilation (MV) in naive rats; type: in vivo, rat
# Protocol: All surgical procedures were performed under anesthesia induced by 2% isoflurane in compressed medical grade air. With rats in supine position, the right femoral vein was catheterized using polyethylene tubing (PE-50). This catheter was used for fluid and drug administration. Simultaneously, the right femoral artery was also catheterized for monitoring blood pressure. In order to measure the respiratory parameters in spontaneously breathing rats, trachea was intubated using 13 gauge tracheal tube (2.5 mm ID, Instech Solomon, Pa.).
# After establishing a stable base-line at 1.5% isoflurane, cumulative dose-dependent (0.01, 0.03, 0.1, 0.3, 1, 3, 10 mg/kg) ventilatory responses to compounds (XXXVI) and (L), labeled as cmpd (A) and cmpd (B) respectively, were generated from spontaneously breathing rats. Maximum peak minute ventilatory (MV) values at each dose of corresponding drug were calculated and used for generating ED50 values.
# [5] = 1 mpk IV, 15% DMA 85% D5W, pH 5-6
# [6] = Table 8, 1 mpk, 20% HPβCD, pH 5
# [7] = IV infusion 0.102 to 2.16 mg/kg, 1 to 4 hours
# T1 sequence (Q62976 whole entry): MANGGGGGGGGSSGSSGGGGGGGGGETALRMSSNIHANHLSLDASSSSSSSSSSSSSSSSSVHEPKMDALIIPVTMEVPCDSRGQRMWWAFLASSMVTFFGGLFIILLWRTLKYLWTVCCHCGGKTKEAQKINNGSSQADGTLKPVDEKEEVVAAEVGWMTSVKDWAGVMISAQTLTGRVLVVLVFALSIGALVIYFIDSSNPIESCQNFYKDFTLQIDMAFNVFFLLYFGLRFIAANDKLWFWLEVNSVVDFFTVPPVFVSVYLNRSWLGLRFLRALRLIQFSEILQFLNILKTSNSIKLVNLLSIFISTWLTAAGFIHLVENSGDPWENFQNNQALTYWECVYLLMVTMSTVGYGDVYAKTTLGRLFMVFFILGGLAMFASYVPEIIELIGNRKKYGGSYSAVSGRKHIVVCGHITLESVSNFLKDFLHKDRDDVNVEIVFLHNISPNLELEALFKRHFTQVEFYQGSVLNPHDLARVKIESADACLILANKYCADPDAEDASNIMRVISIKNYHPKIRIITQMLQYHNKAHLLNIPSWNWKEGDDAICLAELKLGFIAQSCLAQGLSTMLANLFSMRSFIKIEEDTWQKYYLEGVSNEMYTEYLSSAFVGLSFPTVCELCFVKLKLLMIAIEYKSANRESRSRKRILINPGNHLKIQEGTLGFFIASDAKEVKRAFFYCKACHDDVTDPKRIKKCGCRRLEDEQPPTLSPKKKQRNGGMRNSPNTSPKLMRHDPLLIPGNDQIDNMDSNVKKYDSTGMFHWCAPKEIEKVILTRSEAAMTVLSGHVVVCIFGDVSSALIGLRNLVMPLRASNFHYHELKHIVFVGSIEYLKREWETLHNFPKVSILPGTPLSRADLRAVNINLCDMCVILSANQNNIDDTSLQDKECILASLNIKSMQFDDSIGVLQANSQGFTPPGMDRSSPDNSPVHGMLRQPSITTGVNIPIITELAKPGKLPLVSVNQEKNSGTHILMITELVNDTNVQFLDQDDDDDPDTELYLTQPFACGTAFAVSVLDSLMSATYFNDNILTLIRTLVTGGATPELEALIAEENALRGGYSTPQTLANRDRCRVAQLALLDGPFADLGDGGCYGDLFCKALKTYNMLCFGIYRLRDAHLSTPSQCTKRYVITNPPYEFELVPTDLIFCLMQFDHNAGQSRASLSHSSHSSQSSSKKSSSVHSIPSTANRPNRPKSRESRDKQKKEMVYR
compound,measurement,setting,value
"CCCNc1nc(NCCC)nc(N(C)OC)n1 [XXXV, N-(4,6-Bis-n-propylamino-[1,3,5]triazin-2-yl)-N,O-dimethyl-hydroxylamine]",reduction of total channel open probability,[1]; 10 μM,42%
same,inhibition of the native BK channel,[1]; 1 and 10 μM,concentration—dependent inhibition
same,"Inhibition (%), Average",[1]; (XXXV) 1 (mM as printed),22.3%
same,"NPo, Average",[1]; (XXXV) 1 (mM as printed),0.014
same,"Inhibition (%), Average",[1]; (XXXV) 10 (mM as printed),41.4%
same,"NPo, Average",[1]; (XXXV) 10 (mM as printed),0.020
same,MV MPR,[2]; [5],207
same,MV ΔMV,[2]; [5],135
same,MV MPR,"[2]; 1 mpk IV, 20% HPβCD, pH 4-5",344
same,MV ΔMV,"[2]; 1 mpk IV, 20% HPβCD, pH 4-5",210
same,MV DMV,[2]; [6],164
same,MV MPR,[2]; [6],267
"CCCNc1nc(NCCC)nc(N(C)OC)n1.O=S(=O)(O)O [XXXVI, N-(4,6-Bis-n-propylamino-[1,3,5]triazin-2-yl)-N,O-dimethyl-hydroxylamine hydrogen sulfate]",increase in tidal volume,[3]; 0.016 mg/kg dose (so in the source),< 10%
same,minute ventilation,[3]; 0.016 mg/kg/min x 1 hour,stimulated minute ventilation
same,safety and tolerability,"[3]; 0.102-2.16 mg/kg IV, durations 1 to 4 hours",generally safe and well tolerated
same,dose proportionality of concentration at 1 hour and AUC,[3]; [7],dose proportional
same,pharmacokinetic behaviour,[3]; [7],well-behaved pharmacokinetically
same,change in respiratory rate,[3]; all doses,< 10%
same,increase in minute ventilation,"[3]; highest infusion rate (0.016 mg/kg/min x 1 hour), first 2 hours after start of infusion",~27%
same,ED50,"[4]; Rattus norvegicus, iv, read-out: ED50, maximum peak minute ventilation",0.14 mg/kg
same,"minute ventilation, dose dependence","[4]; cumulative IV doses, 1.5% isoflurane",increased minute ventilation in a dose-dependent manner
